Read-outs that look alike come from different tables or passages of the source.
Key:
[1] = tested on: HCV genotype 1b replicon; assay: HCV replicon assay; assay type: cell-based
Description: Huh-7-derived cell line (Zluc) that harbors an HCV genotype 1b replicon and a luciferase reporter gene was grown in Dulbecco's Modified Eagle Medium (DMEM) supplemented with 10% fetal bovine serum, 2 mM GlutaMAX, 1% MEM nonessential amino acids, 100 IU/mL penicillin, 100 μg/mL streptomycin, and 0.5 mg/mL Geneticin® (G418). For dose response testing the cells were seeded in 96-well plates at 7.5×10^3 cells per well in a volume of 50 μL, and incubated at 37° C./5% CO2. Drug solutions were made up freshly in Huh-7 media as 2× stocks. Ten additional 5-fold dilutions were prepared from these stocks in DMEM without G418. At least three hours after Zluc cells were seeded, drug treatment was initiated by adding 50 μL of drug dilutions to the plates in duplicate. Final concentrations of drug ranged from 100 μM to […]. Cells were then incubated at 37° C./5% CO2. Alternatively, compounds were tested at two concentrations (1 μM and 10 μM). […] For this, media was removed from the plates via gentle tapping. Fifty microliters of ONE-glo luciferase assay reagent was added to each well. The plates were shaken gently for 3 min at room temperature and luminescence was measured on a Victor^3 V 1420 multilabel counter (Perkin Elmer) with a 1 second read time using a 700 nm cut-off filter. The EC50 values were calculated from dose response curves from the resulting best-fit equations determined by Microsoft Excel and XLfit 4.1 software. When screening at two fixed concentrations, the results were expressed as % inhibition at 1 μM and 10 μM.

[2] = Cytotoxicity evaluation in Zluc cells (CellTiter-Blue); assay type: cell-based, human; conditions: human, read-out: HCV Replicon CC50
Description: For cytotoxicity evaluation, Zluc cells were treated with compound as described herein, and cell viability was monitored using the CellTiter-Blue Cell Viability Assay (Promega) by adding 20 μL of the assay solution to each well. The plates were then incubated at 37° C./5% CO2 for at least 3 hours.

[3] = tested on: fresh mouse hepatocyte; assay: Release of active metabolite in primary hepatocytes (mouse); assay type: in vitro ADME; conditions: 10 μM
Description: Plates of fresh human and mouse hepatocytes were obtained on ice. The medium was removed and replaced with hepatocyte culture medium (William's E supplemented with penicillin-streptomycin, 1% L-glutamine, 1% insulin-transferrin-selenium and 0.1 μM Dexamethasone (Invitrogen) or with Invitro GRO HI medium complemented with Torpedo antibiotics (Celsis)). Cells were left overnight in an incubator at 37° C. to acclimatize to culture and the medium.
Hepatocyte incubations were conducted at a final volume of 0.5 mL hepatocyte culture medium/well (0.8 million cells/well for human and 0.5 million cells/well for mouse; 12 well plate no overlay, collagen coat). Culture medium from overnight incubation of cells was removed and replaced with fresh medium, pre-warmed to 37° C., containing 10 μM of test compound from a stock solution in DMSO (final DMSO concentration was 0.1%). At each specific time point, incubation medium was removed and cell monolayers were carefully washed two times with ice-cold PBS. Following the last wash, all PBS was carefully removed and 1.0 mL of extraction solution (ice-cold 70% methanol/30% water) added. Cells were scraped off and suspended in the extraction solution, transferred to 2 mL polypropylene microfuge tubes and intracellular contents extracted overnight at −20° C.
After the overnight treatment the cellular extracts were prepared by centrifugation at 16,000×g for 10 min to remove cellular debris. The remaining sample was then dried using a refrigerated centrivap concentrator. Dry extracts were reconstituted in 1000 μL of HPLC-grade water and centrifuged at 16,000×g for 10 min. Aliquots (100 μL each) of the supernatant were transferred into a 96 well plate and internal standard (4 ng/mL final concentration) was added as the internal standard (IS) for LC-MS/MS analysis.
The incubation time points were 6, 24 and 48 hours for human hepatocytes and 1, 4, 8, 12 and 24 hours for mouse hepatocytes.

[4] = tested on: Huh-7 cells; assay: Release of active metabolite in Huh-7 cells; assay type: in vitro ADME, human; conditions: Table 7
Description: Huh-7 cells were plated in 1 mL culture medium (DMEM, containing glucose, L-glutamine and sodium pyruvate, 10% FBS, 100 IU/mL penicillin, 100 μg/mL streptomycin, 2 mM GlutaMAX, 1% MEM non-essential amino acids) at the concentration 0.8, 0.4 and 0.2 million cells per well on 6 well plates for 24, 48 and 72 hr treatment, respectively. Plated cells were incubated overnight at 37° C. in an incubator.
The following morning test compound was diluted to 20 μM from a stock solution in DMSO in fresh culture medium pre-warmed to 37° C. and 1 mL of the solution/well was added to cells. A final medium volume per well was 2.0 mL, test compound concentration in well was 10 μM and final DMSO concentration was 0.1%.
After 24, 48 or 72 hr, the medium was carefully removed and cell monolayers were washed twice with 2 mL ice-cold PBS per well. Following the last wash, all PBS was carefully removed and 1.0 mL of extraction solution (ice-cold 70% methanol) added. The plate was tightly covered with Parafilm, plastic plate cover and Parafilm again and an intracellular content was extracted at −20° C. for 24 hr.
After 24 hr the extracts were transferred into polypropylene microfuge tubes and dry on a refrigerated centrivap concentrator. Dry residues were reconstituted in 250 μL of HPLC-grade water and centrifuged at 16,000×g for 10 min. Aliquots (100 μL each) of the supernatants were transferred into a 96 well plate and internal standard (4 ng/mL final concentration) was added as the internal standard (IS) for LC-MS/MS analysis.

[5] = Liver TP formation and liver targeting in vivo (Example 6, Table 7); design: species or system mice and monkey
Excerpt: The in vitro antiviral inactivity of Z4 and Z2 is thought to reflect an inability of Huh-7 replicon cells to metabolize the prodrug moiety.

[6] = target: T1, carboxylesterase 1 (CES1) (Homo sapiens, UniProt P23141); assay: Hydrolysis of prodrugs by Carboxylesterase 1; assay type: in vitro ADME; conditions: for CES1 hydrolysis: 100 μM compound, 37° C., pH 7.5
T1 construct: purchased R & D Systems (Minneapolis, Minn.)
T1 sequence (P23141 18-567): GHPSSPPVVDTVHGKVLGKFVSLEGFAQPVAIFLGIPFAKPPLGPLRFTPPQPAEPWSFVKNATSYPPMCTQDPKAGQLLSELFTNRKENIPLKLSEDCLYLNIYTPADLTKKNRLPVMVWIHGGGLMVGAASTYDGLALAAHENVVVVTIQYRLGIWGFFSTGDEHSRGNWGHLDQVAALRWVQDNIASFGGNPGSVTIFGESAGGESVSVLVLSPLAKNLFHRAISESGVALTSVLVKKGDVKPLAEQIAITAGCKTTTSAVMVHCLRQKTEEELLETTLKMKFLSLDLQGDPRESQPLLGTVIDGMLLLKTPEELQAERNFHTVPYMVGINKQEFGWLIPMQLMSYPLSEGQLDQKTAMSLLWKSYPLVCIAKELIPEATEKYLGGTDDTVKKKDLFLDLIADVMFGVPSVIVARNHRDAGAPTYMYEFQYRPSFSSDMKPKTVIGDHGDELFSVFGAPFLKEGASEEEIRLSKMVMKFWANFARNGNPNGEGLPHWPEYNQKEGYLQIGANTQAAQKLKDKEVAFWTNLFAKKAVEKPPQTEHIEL
Description: CES1 assay was performed at 37° C. in the reaction mixture containing 50 mM Tris/HCl buffer pH 7.5 and 100 μM of the compound. Reaction was started by addition of the CES1 to the final concentration 0.01 μg/mL. 100 μL aliquots were taken after 0.5 min, 3 hrs and 21 hrs of the incubation and the reaction was stopped by mixing with 100 μl of the ice-cold methanol prior to HPLC analysis.
Samples were analyzed by HPLC using 5 μC-18, 4.6×250 mm Phenomenex® Columbus column (Phenomenex USA, Calif.). The mobile phase consisted of buffer A (25 mM potassium phosphate with 5 mM tetrabutylammonium dihydrogen phosphate pH 6.3) and buffer B (100% methanol).

[7] = target: T2, cathepsin A (CatA) (Homo sapiens, UniProt P10619); assay: Hydrolysis of prodrugs by Cathepsin A; assay type: in vitro ADME; conditions: time not given; 100 μM compound, 37° C., pH 6.0
T2 sequence (P10619 29-326 limits assumed): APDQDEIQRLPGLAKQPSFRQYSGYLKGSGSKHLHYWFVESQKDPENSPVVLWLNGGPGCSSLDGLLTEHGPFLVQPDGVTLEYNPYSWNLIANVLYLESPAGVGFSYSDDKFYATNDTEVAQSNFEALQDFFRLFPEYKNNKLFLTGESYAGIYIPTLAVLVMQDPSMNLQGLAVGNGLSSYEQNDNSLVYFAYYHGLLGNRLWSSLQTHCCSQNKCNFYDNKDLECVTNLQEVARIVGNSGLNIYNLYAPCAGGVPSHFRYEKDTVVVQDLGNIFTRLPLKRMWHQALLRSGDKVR
T2 sequence (P10619 327-480 limits assumed): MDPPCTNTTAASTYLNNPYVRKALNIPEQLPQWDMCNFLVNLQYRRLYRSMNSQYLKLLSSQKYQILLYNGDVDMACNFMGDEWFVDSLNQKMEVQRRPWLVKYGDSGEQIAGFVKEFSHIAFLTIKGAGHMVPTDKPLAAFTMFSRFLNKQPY
Description: CatA, cathepsin L (CatL) and CES1 were purchased from R & D Systems (Minneapolis, Minn.). Prior to the enzymatic hydrolysis reactions, CatA was activated according to the manufacturer's instruction. Briefly, CatA (0.05 μg/μL) was incubated with CatL (0.005 μg/μL) for 30 min at 37° C. in 25 mM MES pH 6.0 containing 5 mM DTT. The reaction was stopped by addition of the CatL specific inhibitor E64 (10 μM).
The CatA assay was performed at 37° C. The reaction mixture contained 25 mM MES buffer pH 6.0, 100 mM NaCl, 4 mM DTT and 100 μM of the compound. The reaction was started by addition of the activated CatA enzyme to a final concentration of 0.005 μg/μL. […] Reactions were stopped by mixing the sample with an equal volume of ice-cold methanol, and were loaded on a HPLC for analysis.

[8] = Plasma nucleoside and liver triphosphate PK after single oral dose (Example 4); assay type: in vivo, CD-1 mice; conditions: at 1 μmol/kg, single oral dose 10 mg/kg in PEG 200
Description: Plasma samples were analyzed for nucleoside by LC-MS/MS. The internal standard (IS) was either 2′-MeG-D3 or tiapride. For protein precipitation and extraction, each plasma sample (50 μL) was treated with 500 μL of 0.2% formic acid in acetonitrile and 20 μL of the internal standard working solution. After vortexing and centrifugation, 500 μL of the sample extracts were transferred to a new plate, dried under N2 at ˜28° C. and reconstituted with 75 μL of 0.2% FA in water. The extracts were chromatographed on an Aquasil C18 column using a gradient system of 0.2% formic acid in water and acetonitrile. The analytes were detected and quantified by tandem mass spectrometry in positive ion mode on an MDS Sciex API5000 equipped with a Turbo Ionspray® interface. The calibration range was 0.500 (LLOQ) to 200 ng/mL in mouse plasma.
Internal standard solution was added to the homogenate followed by neutralization with 20% ammonium hydroxide solution and addition of 500 μL 1% formic acid. The tissue samples were extracted by weak anion exchange solid phase extraction (SPE). Post extraction, the eluates were evaporated under nitrogen, followed by reconstitution before injection onto the LC-MS/MS system.

[9] = Hepatitis C virus, 72 h, Zluc (Huh-7-derived) cells, luciferase reporter, 72 hours, read-out: HCV Replicon EC50
[10] = Hepatitis C virus, Huh-7, read-out: EC50 (replicon reproduction), genotype 1b HCV replicon-bearing human hepatoma cell line (Huh-7)

Structure (SMILES)	EC50 [1, 9] [µM]	CC50 [2] [µM]	MsH AUC [3] [pmol.hr/mill cells]	MsH Cmax [3] [pmol/mill cells]	EC50 [1, 10] [µM]	Huh-7 AUC0-72 [4] [pmol*hr/10^6cells]	Liver:plasma ratio of drug metabolites [5]	Hydrolysis by CES1 [6]	CES1 hydrolysis ([6]; 3 h) [% @]	CES1 hydrolysis ([6]; 21 h)	CatA hydrolysis [7] [%]	also measured
CC(C)OC(=O)[C@@H](C)NP(=O)(OC[C@H]1O[C@@H](n2ccc(=O)[nH]c2=O)[C@](C)(Cl)[C@@H]1O)Oc1ccccc1 (single isomer, unassigned) [40i Diastereomer 1]	> 10	> 50	4052	198								
CCOc1nc(N)nc2c1ncn2[C@@H]1O[C@H](COP(=O)(N[C@H](C)C(=O)OC(C)C)Oc2ccccc2)C[C@@]1(C)F (single isomer, unassigned) [502a Diastereomer 1]	1 to 10	< 50										
CC(C)OC(=O)[C@@H](C)NP(=O)(OC[C@H]1O[C@@H](n2ccc(=O)[nH]c2=O)[C@](C)(Cl)[C@@H]1O)Oc1ccccc1 (single isomer, unassigned) [Compound 40i Diastereomer 1]					> 50	436.9	high liver:plasma ratio of drug metabolites	processed	23	3 h; 49%	0	
CC(C)OC(=O)[C@@H](C)NP(=O)(OC[C@H]1O[C@@H](n2ccc(=O)[nH]c2=O)[C@](C)(Cl)[C@@H]1O)Oc1ccccc1 (single isomer, unassigned; diastereomer 2) [40i Diastereomer 2]			1073	89								Ms Plasma nucleoside AUC [8]: 0.0036 M·s; Cmax ([8]; read-out: Ms Plasma nucleoside Cmax): 64 nM
CC(C)OC(=O)[C@@H](C)NP(=O)(OC[C@H]1O[C@@H](n2ccc(=O)[nH]c2=O)[C@](C)(Cl)[C@@H]1O)Oc1ccccc1 (single isomer, unassigned; diastereomer 2) [Compound 40i Diastereomer 2]										4.5% @	0	EC50 ([1]; Table 7, read-out: EC50): 7 µM; Liver TP [5]: 4400 pmol·h/g
CC(C)OC(=O)[C@@H](C)N[P@@](=O)(OC[C@H]1O[C@@H](n2ccc(=O)[nH]c2=O)[C@](C)(F)[C@@H]1O)Oc1ccccc1 [Compound (804a) Ia (RP isomer), D-Alanine, N—((RP,2′R)-2′-deoxy-2′-fluoro-2′-methyl-P-phenyl-5′-uridylyl)-, 1-methylethyl ester]					> 50	720.4	high liver:plasma ratio of drug metabolites	processed	10	3 h; 26%	0	EC50 ([1]; Hepatitis C virus, Table 7, read-out: EC50): > 50 µM

— patent US10717758B2, “D-amino acid compounds for liver disease” (priority 2012, dated 2020)
